According to EPA's ToxRefDB 2:

How the values were obtained:
[1] = tested on: rabbit; conditions: Prenatal developmental toxicity study; new zealand white; Oral; Gavage/Intubation; dose end: 18 GD; group: maternal; systemic / in life observation / clinical signs / general motor disturbances + systemic / in life observation / clinical signs / partial …
[2] = tested on: rat; conditions: Prenatal developmental toxicity study, sprague dawley, Oral, Gavage/Intubation, dose end: 15 GD
[3] = tested on: rat; conditions: Subchronic dermal toxicity, sprague dawley, Topical, dose end: 91 day, group: systemic, systemic / in life observation / clinical signs / erythema
[4] = tested on: rat; conditions: Multigenerational reproductive toxicity study; sprague dawley; Oral; Feed; dose end: 2 generation; group: offspring; systemic / in life observation / body weight / offspring (pup) weight
[5] = tested on: mouse; conditions: Carcinogenicity, cd1, Oral, Feed, dose end: 104 week, group: systemic
[6] = tested on: rat; conditions: Prenatal developmental toxicity study, sprague dawley, Oral, Gavage/Intubation, dose end: 15 GD; remark: listed apart in the source
[7] = tested on: dog; conditions: Subchronic oral toxicity in nonrodent, beagle, Water, dose end: 90 day, group: systemic, systemic / in life observation / clinical signs / vomitting
[8] = tested on: rat; conditions: Multigenerational reproductive toxicity study, sprague dawley, Oral, Water, dose end: 2 generation
[9] = tested on: rat; conditions: Prenatal developmental toxicity study, wistar, Oral, Gavage/Intubation, dose end: 15 GD
[10] = tested on: mouse; conditions: Chronic toxicity; b6c3f1; Inhalation; Whole-Body; dose end: 78 week; group: systemic; systemic / in life observation / body weight / body weight gain + systemic / pathology microscopic / nose / hyperplasia
[11] = tested on: rat; conditions: Multigenerational reproductive toxicity study, wistar, Oral, Water, dose end: 2 generation
[12] = tested on: rabbit; conditions: Prenatal developmental toxicity study, himalayan, Oral, Gavage/Intubation, dose end: 19 GD
[13] = tested on: rat; conditions: Combined chronic toxicity/carcinogenicity, fischer, Oral, Water, dose end: 104 week, group: systemic
[14] = tested on: rat; conditions: Subchronic inhalation toxicity, fischer, Whole-Body, dose end: 13 week, group: systemic
[15] = tested on: rat; conditions: Carcinogenicity, wistar, Oral, Water, dose end: 24 month, group: systemic
[16] = tested on: rat; conditions: Chronic toxicity, wistar, Oral, Water, dose end: 12 month, group: systemic
[17] = tested on: rat; conditions: Subchronic dermal toxicity, sprague dawley, Topical, dose end: 90 day, group: systemic, systemic / pathology gross / skin / scabbing + systemic / pathology microscopic / skin / acanthosis + systemic / pathology microscopic / …
[18] = tested on: mouse; conditions: Subchronic oral toxicity in rodents, cd1, Water, dose end: 90 day, group: systemic, systemic / pathology microscopic / stomach / inflammation + systemic / urinalysis / specific gravity/osmolality / specific gravity/…
[19] = tested on: mouse; conditions: Subchronic inhalation toxicity, b6c3f1, Whole-Body, dose end: 13 week
[20] = tested on: rat; conditions: Multigenerational reproductive toxicity study, sprague dawley, Oral, Water, dose end: 2 generation; remark: listed apart in the source
[21] = tested on: rat; conditions: Subchronic oral toxicity in rodents, fischer, Water, dose end: 3 month, group: systemic, systemic / clinical chemistry / alanine aminotransferase (alt/sgpt) / alanine aminotransferase (alt/sgpt) + systemic / clinical chemistry / …
[22] = tested on: mouse; conditions: Subchronic oral toxicity in rodents, b6c3f1, Water, dose end: 3 month, group: systemic
[23] = tested on: rat; conditions: Combined chronic toxicity/carcinogenicity, fischer, Oral, Water, dose end: 105 week, group: systemic
[24] = tested on: mouse; conditions: Combined chronic toxicity/carcinogenicity, b6c3f1, Oral, Water, dose end: 105 week, group: systemic
[25] = group: developmental, developmental / developmental malformation / bone / bent + developmental / developmental malformation / bone / unossified + developmental / …
[26] = group: maternal, systemic / in life observation / body weight / body weight + systemic / in life observation / clinical signs / reduced activity + systemic…
[27] = systemic / in life observation / body weight / body weight gain + systemic / pathology microscopic / intestine small / hyperplasia + …
[28] = group: developmental, developmental / developmental malformation / bone / absent + developmental / developmental malformation / bone / fused + developmental / …
[29] = group: maternal, systemic / in life observation / clinical signs / alopecia + systemic / in life observation / clinical signs / defecation (diarrhea) + …
[30] = group: offspring, systemic / in life observation / body weight / offspring (pup) weight
[31] = group: parental, systemic / in life observation / food consumption / food consumption
[32] = group: parental, systemic / in life observation / food consumption / food consumption + systemic / pathology gross / lymph node / enlarged + systemic / …
[33] = group: developmental, systemic / in life observation / body weight / fetal weight
[34] = group: maternal, systemic / in life observation / body weight / body weight gain + systemic / in life observation / clinical signs / piloerection + systemic…
[35] = group: maternal, systemic / in life observation / clinical signs / piloerection
[36] = group: offspring, systemic / in life observation / body weight / litter weight + systemic / in life observation / body weight / offspring (pup) weight
[37] = group: parental, systemic / in life observation / body weight / body weight + systemic / in life observation / body weight / body weight gain + systemic / in…
[38] = group: parental, systemic / in life observation / water consumption / water consumption
[39] = group: maternal, systemic / in life observation / body weight / body weight + systemic / in life observation / body weight / body weight gain + systemic / in…
[40] = systemic / organ weight / kidney / relative to body weight + systemic / in life observation / clinical signs / urine staining - perineum + …
[41] = systemic / organ weight / kidney / relative to body weight + systemic / pathology gross / stomach / [other] + systemic / clinical chemistry…
[42] = systemic / pathology microscopic / nose / [other] + systemic / pathology microscopic / nose / hyperplasia + systemic / pathology microscopic…
[43] = systemic / in life observation / water consumption / water consumption
[44] = systemic / in life observation / body weight / body weight gain + systemic / pathology gross / stomach / erosion + systemic / pathology …
[45] = group: developmental, developmental / developmental malformation / penis / paraphimosis
[46] = group: maternal, reproductive / reproductive performance / estrous cycle / abnormal
[47] = group: systemic, systemic / pathology microscopic / nose / inflammation
[48] = group: systemic, systemic / pathology microscopic / nose / inflammation + systemic / in life observation / body weight / body weight gain
[49] = group: offspring, systemic / in life observation / body weight / offspring (pup) weight gain
[50] = systemic / hematology / erythrocyte (rbc) count differential / erythrocyte (rbc) + systemic / hematology / hemoglobin (hgb) / hemoglobin (…
[51] = systemic / hematology / mean corpuscular hemoglobin (mch) / mean corpuscular hemoglobin (mch) + systemic / pathology microscopic / intestine…
[52] = systemic / pathology microscopic / liver / inflammation
[53] = systemic / pathology microscopic / oral mucosa / squamous cell carcinoma + systemic / clinical chemistry / alanine aminotransferase (alt/…
[54] = systemic / pathology microscopic / intestine small / adenoma + systemic / pathology microscopic / intestine small / carcinoma + systemic / …
[55] = systemic / pathology microscopic / intestine small / hyperplasia + systemic / pathology microscopic / lymph node / infiltration cellular + …

N#CN=C([S-])[S-].[Na+].[Na+] [Disodium cyanodithioimidocarbonate]
LEL [1]: 10 mg/kg/day
LOAEL [1]: 10 mg/kg/day
NEL [1]: 3 mg/kg/day
NOAEL [1]: 3 mg/kg/day
LOAEL ([2]; group: developmental, developmental / developmental malformation / bone / bent + developmental / developmental malformation / bone / unossified): 18 mg/kg/day
LEL [2, 25]: 18 mg/kg/day
NEL [2, 25]: 6 mg/kg/day
NOAEL [2, 25]: 6 mg/kg/day
LOAEL ([2]; group: maternal, systemic / in life observation / body weight / body weight + systemic / in life observation / clinical signs / reduced activity): 18 mg/kg/day
LEL [2, 26]: 18 mg/kg/day
NEL [2, 26]: 6 mg/kg/day
NOAEL [2, 26]: 6 mg/kg/day
LEL [3]: 25 mg/kg/day
LOAEL [3]: 25 mg/kg/day
NEL [3]: < 25 mg/kg/day
NOAEL [3]: < 25 mg/kg/day

N#CSCSc1nc2ccccc2s1 [2-(Thiocyanomethylthio)benzothiazole]
LEL [4]: 38.4 mg/kg/day
LOAEL [4]: 38.4 mg/kg/day
NEL [4]: 9.6 mg/kg/day
NOAEL [4]: 9.6 mg/kg/day
LOAEL ([5]; systemic / in life observation / body weight / body weight gain + systemic / pathology microscopic / intestine small / hyperplasia): 148 mg/kg/day
LEL [5, 27]: 148 mg/kg/day
NEL [5, 27]: 49.3 mg/kg/day
NOAEL [5, 27]: 49.3 mg/kg/day
LEL [6, 28]: 126 mg/kg/day
LOAEL [6, 28]: 126 mg/kg/day
NEL [6, 28]: 76.5 mg/kg/day
NOAEL [6, 28]: 76.5 mg/kg/day
LEL [6, 29]: 76.5 mg/kg/day
LOAEL [6, 29]: 76.5 mg/kg/day
NEL [6, 29]: 25.1 mg/kg/day
NOAEL [6, 29]: 25.1 mg/kg/day

O=CCCCC=O [Glutaraldehyde]
LEL [7]: 14.6 mg/kg/day
LOAEL [7]: 14.6 mg/kg/day
NEL [7]: 9.8 mg/kg/day
NOAEL [7]: 9.8 mg/kg/day
LEL [8, 30]: 71.1 mg/kg/day
LOAEL [8, 30]: 71.1 mg/kg/day
NEL [8, 30]: 20.9 mg/kg/day
NOAEL [8, 30]: 20.9 mg/kg/day
LEL [8, 31]: 19.5 mg/kg/day
LOAEL [8, 31]: 19.5 mg/kg/day
NEL [8, 32]: 4.25 mg/kg/day
NOAEL [8, 32]: 4.25 mg/kg/day
LEL [9, 33]: 100 mg/kg/day
LOAEL [9, 33]: > 100 mg/kg/day
NEL [9, 33]: 50 mg/kg/day
NOAEL [9, 33]: ≥ 100 mg/kg/day
LOAEL [9, 34]: > 100 mg/kg/day
NOAEL [9, 34]: ≥ 100 mg/kg/day
LEL [9, 35]: 25 mg/kg/day
NEL [9, 35]: < 25 mg/kg/day
LEL [10]: 0.1 ppm
LOAEL [10]: > 0.1 ppm
NEL [10]: < 0.1 ppm
NOAEL [10]: ≥ 0.1 ppm
LEL [11, 36]: 76 mg/kg/day
LOAEL [11, 36]: 76 mg/kg/day
NEL [11, 36]: 22.4 mg/kg/day
NOAEL [11, 36]: 22.4 mg/kg/day
LOAEL [11, 37]: 76 mg/kg/day
NOAEL [11, 37]: 22.4 mg/kg/day
LEL [11, 38]: 22.4 mg/kg/day
NEL [11, 38]: 4.7 mg/kg/day
LEL [12, 33]: 45 mg/kg/day
LOAEL [12, 33]: 45 mg/kg/day
NEL [12, 33]: 15 mg/kg/day
NOAEL [12, 33]: 15 mg/kg/day
LEL [12, 39]: 45 mg/kg/day
LOAEL [12, 39]: 45 mg/kg/day
NEL [12, 39]: 15 mg/kg/day
NOAEL [12, 39]: 15 mg/kg/day
LEL [13, 40]: 4 mg/kg/day
NEL [13, 40]: < 4 mg/kg/day
LOAEL [13, 41]: > 64 mg/kg/day
NOAEL [13, 41]: ≥ 64 mg/kg/day
LEL ([14]; systemic / hematology / neutrophils / neutrophils): 0.125 ppm
NEL ([14]; systemic / hematology / neutrophils / neutrophils + systemic / clinical chemistry / alanine aminotransferase (alt/sgpt) / alanine …): 0.0625 ppm
LOAEL [14, 42]: 0.25 ppm
NOAEL [14, 42]: 0.125 ppm
LEL [15, 43]: 5.3 mg/kg/day
NEL [15, 43]: < 5.3 mg/kg/day
LOAEL ([15]; systemic / pathology microscopic / larynx / metaplasia): 61 mg/kg/day
NOAEL ([15]; systemic / pathology microscopic / larynx / metaplasia + systemic / in life observation / body weight / body weight + systemic / in life …): 16.1 mg/kg/day
LOAEL [16, 44]: 58.9 mg/kg/day
NOAEL [16, 44]: 15.4 mg/kg/day
LEL ([16]; systemic / pathology gross / pituitary gland / enlarged): 23.2 mg/kg/day
NEL ([16]; systemic / pathology gross / pituitary gland / enlarged + systemic / in life observation / clinical signs / abnormal respiratory sounds + …): 4.8 mg/kg/day
LEL [17]: 50 mg/kg/day
LOAEL [17]: 50 mg/kg/day
NEL [17]: < 50 mg/kg/day
NOAEL [17]: < 50 mg/kg/day
LEL [18]: 200 mg/kg/day
LOAEL [18]: 200 mg/kg/day
NEL [18]: 60.8 mg/kg/day
NOAEL [18]: 60.8 mg/kg/day
LEL [19, 45]: 1 ppm
LOAEL [19, 45]: > 1 ppm
NEL [19, 45]: 0.5 ppm
NOAEL [19, 45]: ≥ 1 ppm
LEL [19, 46]: 0.5 ppm
LOAEL [19, 46]: > 1 ppm
NEL [19, 46]: 0.25 ppm
NOAEL [19, 46]: ≥ 1 ppm
LOAEL [19, 47]: 0.0625 ppm
NOAEL [19, 47]: < 0.0625 ppm
LEL [19, 48]: 0.0625 ppm
NEL [19, 48]: < 0.0625 ppm
LEL [20, 49]: 98.4 mg/kg/day
LOAEL [20, 49]: 98.4 mg/kg/day
NEL [20, 49]: 28.3 mg/kg/day
NOAEL [20, 49]: 28.3 mg/kg/day
LEL [20, 38]: 19.5 mg/kg/day
LOAEL [20, 38]: > 69.1 mg/kg/day
NEL [20, 38]: 4.25 mg/kg/day
NOAEL [20, 38]: ≥ 69.1 mg/kg/day

O.O.[Na+].[Na+].[O]=[Cr](=[O])([O-])[O][Cr](=[O])(=[O])[O-] [Sodium dichromate(VI) dihydrate]
LEL [21]: 5 mg/kg/day
LOAEL [21]: > 60 mg/kg/day
NEL [21]: < 5 mg/kg/day
NOAEL [21]: ≥ 60 mg/kg/day
LOAEL [22, 50]: > 80 mg/kg/day
NOAEL [22, 50]: ≥ 80 mg/kg/day
LEL [22, 51]: 9 mg/kg/day
NEL [22, 51]: < 9 mg/kg/day
LEL [23, 52]: 0.7 mg/kg/day
NEL [23, 52]: < 0.7 mg/kg/day
LOAEL [23, 53]: > 17 mg/kg/day
NOAEL [23, 53]: ≥ 17 mg/kg/day
LOAEL [24, 54]: > 17 mg/kg/day
NOAEL [24, 54]: ≥ 17 mg/kg/day
LEL [24, 55]: 1.1 mg/kg/day
NEL [24, 55]: < 1.1 mg/kg/day
